Patent US10654834B2 (Venenum Biodesign, LLC, priority 2016, dated 2020)

How the values were obtained:
[1] = molecular target: T1, mouse TGR5 receptor (Mus musculus, UniProt Q80SS6); assay: Mouse TGR5 luminescent cAMP production assay (HEK293-EBNA cells, DiscoveRx cAMP XS+ kit); type: cell-based; settings: HEK293-EBNA cells overexpressing mouse TGR5, luminescent cAMP assay; read-out: Mouse TGR5 Lum. cAMP Activity (EC50)
T1 construct: host or cells: HEK293-EBNA (293 c18, ATCC CRL10852)
T1 sequence (Q80SS6 1-329): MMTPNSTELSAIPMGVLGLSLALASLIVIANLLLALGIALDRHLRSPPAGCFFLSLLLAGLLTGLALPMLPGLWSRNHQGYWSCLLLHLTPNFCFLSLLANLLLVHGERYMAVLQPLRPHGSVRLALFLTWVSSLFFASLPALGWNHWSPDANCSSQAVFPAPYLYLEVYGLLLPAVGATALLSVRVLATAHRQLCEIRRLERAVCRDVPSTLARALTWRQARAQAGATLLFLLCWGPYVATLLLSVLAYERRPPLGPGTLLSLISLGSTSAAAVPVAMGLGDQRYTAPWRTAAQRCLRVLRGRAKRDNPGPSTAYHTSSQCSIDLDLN
Procedure: Mouse TGR5 cAMP Production Assay
Compounds of the present invention were evaluated for their ability to induce cAMP production in HEK-EBNA cells overexpressing the mouse TGR5 receptor. Human embryonic kidney cells (HEK293-EBNA) stably expressing mouse TGR5 receptor were established using the following procedure. Specifically, a commercially obtained gene encoding mouse TGR5 (accession number BC116914) from Thermo Scientific (Waltham, Mass.) was cloned into an episomal expression vector. The resulting expression plasmid was then transfected into 293 c18 (ATCC® CRL10852™) cells, which express the Epstein-Barr virus nuclear antigen EBNA1 and can support the replication of episomal vectors. Selection for the plasmid was maintained with Hygromycin B. Cells were cultured and maintained in DMEM (Sigma; cat #6429) supplemented with 10% Fetal Bovine Serum, 1% penicillin/streptomycin, 2 mM L-alanine L-glutamine (GlutaMax), and 250 μg/mL Hygromycin.
We developed two cAMP production assays.
(i) Luminescent cAMP Production Assay
In this first cAMP production assay, the cAMP production was measured using DiscoveRx's cAMP XS+ kit following the manufacturer's recommended protocol. Briefly, HEK293-EBNA cells stably overexpressing mouse TGR5 were harvested using non-enzymatic cell dissociation buffer (Sigma-Aldrich, St. Louis, Mo.), spun down, then resuspended in serum-free DMEM with 500 μM IBMX at a density of 1.25×10^6 cells/mL. 500 μL of cAMP antibody solution was added to 500 μL of cell suspension and incubated at room temperature for 20 min.
Test compounds were serially diluted (half-log dilutions) in DMSO and then further diluted 1:50 in PBS, 10 mM HEPES buffer. 2 μL of serially diluted compound was added to a 384-well low volume plate (Greiner cat #784075) and centrifuged briefly. 2 μl of the cell/cAMP antibody mixture was then added to each compound-containing well and allowed to incubate at room temperature for one (1) hour. Following incubation, the XS+ kits' ED/Lysis/CL Substrate Working Solution was prepared following the manufacturer's recommended protocol and 4 μL was added to each well of the plate. The plate was then incubated for one (1) hour at room temperature. Following incubation, 4 μL of (Enzyme Acceptor) EA reagent was added to the plate and allowed to incubate overnight at room temperature. Luminescent signal was then detected using the Viewlux instrument (PerkinElmer, Waltham, Mass.).
In Table 52, EC50 values for both human and mouse cells were determined according to the TGR5 cAMP assays described above. […]

[2] = molecular target: T2, human TGR5 receptor (Homo sapiens, UniProt Q8TDU6); assay: Human TGR5 cAMP production assay (hTGR5-CHO cells, DiscoveRx cAMP XS+ kit); type: cell-based; settings: luminescent cAMP assay, read-out: Human TGR5 Lum. cAMP Activity (EC50)
T2 construct: host or cells: CHO-K1 (hTGR5-CHO)
T2 sequence (Q8TDU6 1-330): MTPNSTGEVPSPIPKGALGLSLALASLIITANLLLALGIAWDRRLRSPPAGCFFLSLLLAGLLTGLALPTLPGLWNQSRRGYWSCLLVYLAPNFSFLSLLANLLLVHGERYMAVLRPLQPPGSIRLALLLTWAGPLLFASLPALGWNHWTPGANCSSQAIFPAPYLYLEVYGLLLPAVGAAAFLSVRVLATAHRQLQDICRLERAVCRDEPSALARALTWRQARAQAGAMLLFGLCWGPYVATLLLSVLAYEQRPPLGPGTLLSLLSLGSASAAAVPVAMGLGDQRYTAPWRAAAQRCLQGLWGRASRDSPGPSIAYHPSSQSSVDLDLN
Method in brief: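 EC50 values come from luminescent enzyme-complementation cAMP detection, read after overnight incubation. Beforehand, hTGR5-expressing CHO-K1 cells with IBMX and anti-cAMP antibody were exposed 1 h at room temperature to serially diluted (half-log) compounds.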

SMILES | EC50 [1] [nM] | EC50 [2] [nM]
CCCCCCc1ccc(-c2cc(N3CCC[C@H]3C(=O)NCCc3ccc(C#N)cc3)nc(C(F)(F)F)n2)s1 [Compound 139, (S)—N-(4-cyanophenethyl)-1-(6-(5-hexylthiophen-2-yl)-2-(trifluoromethyl)pyrimidin-4-yl)pyrrolidine-2-carboxamide] | 1000 to 30000 | 1000 to 30000
N#Cc1ccc(CCNC(=O)C2CCN2c2cc(N3CCC(CO)CC3)nc(C(F)(F)F)n2)cc1 (centres unmarked) [Compound 241, N-(4-cyanophenethyl)-1-(6-(4-(hydroxymethyl)piperidin-1-yl)-2-(trifluoromethyl)pyrimidin-4-yl)azetidine-2-carboxamide] | < 100 | < 100
N#Cc1ccc(CCNC(=O)[C@@H]2CCCN2c2cc(-c3csc(C(=O)O)c3)nc(C(F)(F)F)n2)cc1 [Compound 178, (S)-4-(6-(2-((4-cyanophenethyl)carbamoyl)pyrrolidin-1-yl)-2-(trifluoromethyl)pyrimidin-4-yl)thiophene-2-carboxylic acid] | < 100 | 1000 to 30000
N#Cc1ccc(CCNC(=O)[C@@H]2CCCN2c2cc(-c3cccs3)nc(C(F)(F)F)n2)cc1 [Compound 165, (S)-N-(4-cyanophenthyl)-1-(6-(thiophene-2-yl)-2-(trifluoromethyl)pyrimidin-4-yl)pyrrolidine-2-carboxamide] | 100 to 999 | 100 to 999
Cc1ccc(-c2cc(N3CCC[C@H]3C(=O)NCCc3ccc(C#N)cc3)nc(C(F)(F)F)n2)o1 [Compound 166, (S)-N-(4-cyanophenethyl)-1-(6-(5-methylfuran-2-yl)-2-(trifluoromethyl)pyrimidin-4-yl)pyrrolidine-2-carboxamide] | 100 to 999 | 100 to 999
CNCC1CCN(c2cc(N3CCC[C@H]3C(=O)NCCc3ccc(C#N)cc3)nc(C(F)(F)F)n2)CC1 [Compound 49] | 100 to 999 | 100 to 999
CN(C)c1cc(N2CCC[C@@H](C(=O)NCCc3ccc(C(F)(F)F)cc3)C2)nc(C(F)(F)F)n1 [Compound 322, (R)-1-(6-(dimethylamino)-2-(trifluoromethyl)pyrimidin-4-yl)-N-(4-(trifluoromethyl)phenethyl)piperidine-3-carboxamide] | 1000 to 30000 | 100 to 999
N#Cc1ccc(CCNC(=O)[C@@H]2CCCN2c2cc(-c3ccccn3)nc(C(F)(F)F)n2)cc1 [Compound 162, (S)-N-(4-cyanophenethyl)-1-(6-(pyridin-2-yl)-2-(trifluoromethyl)pyrimidin-4-yl)pyrrolidine-2-carboxamide] | 100 to 999 | 100 to 999
Nc1cc(N2CCC[C@@H](C(=O)NCCc3ccc(C(F)(F)F)cc3)C2)nc(C(F)(F)F)n1 [Compound 320, (R)-1-(6-amino-2-(trifluoromethyl)pyrimidin-4-yl)-N-(4-(trifluoromethyl)phenethyl)piperidine-3-carboxamide] | 100 to 999 | 100 to 999
N#Cc1ccc(CCNC(=O)[C@@H]2CCCN2c2cc(-c3ccc(S(=O)(=O)N4CCOCC4)cc3)nc(C(F)(F)F)n2)cc1 [Compound 154, (S)-N-(4-cyanophenethyl)-1-(6-(4-(morpholinosulfonyl)phenyl)-2-(trifluoromethyl)pyrimidin-4-yl)pyrrolidine-2-carboxamide] | 100 to 999 | 1000 to 30000
O=C(NCCc1ccc(C(F)(F)F)cc1)[C@@H]1CCCN1c1cc(N2CCC(CCO)CC2)nc(C(F)(F)F)n1 [Compound 7] | < 100 | < 100
N#Cc1ccc(CCNC(=O)[C@@H]2CCN2c2cc(-c3ccc(CO)cc3)nc(C(F)(F)F)n2)cc1 [Compound 304, (S)-N-(4-cyanophenethyl)-1-(6-(4-(hydroxymethyl)phenyl)-2-(trifluoromethyl)pyrimidin-4-yl)azetidine-2-carboxamide] | 100 to 999 | 100 to 999
N#Cc1ccc(CCNC(=O)[C@@H]2CCN2c2cc(OC3CCOCC3)nc(C(F)(F)F)n2)cc1 [Compound 242, (S)—N-(4-cyanophenethyl)-1-(6-((tetrahydro-2H-pyran-4-yl)oxy)-2-(trifluoromethyl)pyrimidin-4-yl)azetidine-2-carboxamide] | < 100 | 100 to 999
O=C(NCCc1ccc(C(F)(F)F)cc1)[C@@H]1CCCN(c2cc(N3CCNCC3)nc(C(F)(F)F)n2)C1 [Compound 327, (R)-1-(6-(piperazin-1-yl)-2-(trifluoromethyl)pyrimidin-4-yl)-N-(4-(trifluoromethyl)phenethyl)piperidine-3-carboxamide] | 100 to 999 | 1000 to 30000
N#Cc1ccc(CCNC(=O)[C@@H]2CCCN2c2cc(-c3ccc(OC(F)(F)F)cc3)nc(C(F)(F)F)n2)cc1 [Compound 150, (S)-N-(4-cyanophenethyl)-1-(6-(4-(trifluoromethoxy)phenyl)-2-(trifluoromethyl)pyrimidin-4-yl)pyrrolidine-2-carboxamide] | 100 to 999 | 100 to 999

Second part, the compound after the results:

EC50 [1] [nM] | EC50 [2] [nM] | SMILES
1000 to 30000 | 1000 to 30000 | CN(CC1CCN(c2cc(N3CCC[C@H]3C(=O)NCCc3ccc(C#N)cc3)nc(C(F)(F)F)n2)CC1)C(=O)OC(C)(C)C [Compound 20]
100 to 999 | 1000 to 30000 | N#Cc1ccc(CCNC(=O)[C@@H]2CCCN2c2cc(-c3ccoc3)nc(C(F)(F)F)n2)cc1 [Compound 164, (S)-N-(4-cyanophenethyl)-1-(6-(furan-3-yl)-2-(trifluoromethyl)pyrimidin-4-yl)pyrrolidine-2-carboxamide]
100 to 999 | 100 to 999 | N#Cc1ccc(CCNC(=O)[C@@H]2CCCN(c3cc(N4CCN(CCO)CC4)nc(C(F)(F)F)n3)C2)cc1 [Compound 313, (R)-N-(4-cyanophenethyl)-1-(6-(4-(2-hydroxyethyl)piperazin-1-yl)-2-(trifluoromethyl)pyrimidin-4-yl)piperidine-3-carboxamide]
100 to 999 | 100 to 999 | CNc1cc(N2CCC[C@@H](C(=O)NCCc3ccc(C(F)(F)F)cc3)C2)nc(C(F)(F)F)n1 [Compound 321, (R)-1-(6-(methylamino)-2-(trifluoromethyl)pyrimidin-4-yl)-N-(4-(trifluoromethyl)phenethyl)piperidine-3-carboxamide]
100 to 999 | 100 to 999 | N#Cc1ccc(CCNC(=O)[C@@H]2CCCN2c2cc(-c3ccncc3)nc(C(F)(F)F)n2)cc1 [Compound 141, (S)-N-(4-cyanophenethyl)-1-(6-(pyridin-4-yl)-2-(trifluoromethyl)pyrimidin-4-yl)pyrrolidine-2-carboxamide]
< 100 | 100 to 999 | CC(C)(C)OC(=O)N1CCC(Oc2cc(N3CCC[C@H]3C(=O)NCCc3ccc(C#N)cc3)nc(C(F)(F)F)n2)CC1 [Compound 45, (S)-tert-butyl 4-((6-(2-((4-cyanophenethyl)carbamoyl)pyrrolidin-1-yl)-2-(trifluoromethyl)pyrimidin-4-yl)oxy)piperidine-1-carboxylate]
100 to 999 | 1000 to 30000 | N#Cc1ccc(CCNC(=O)[C@@H]2CCN2c2cc(-c3cccnc3)nc(C(F)(F)F)n2)cc1 [Compound 305, (S)-N-(4-cyanophenethyl)-1-(6-(pyridin-3-yl)-2-(trifluoromethyl)pyrimidin-4-yl)azetidine-2-carboxamide]
